Data set [1] in a line: pH measurements (absorption and emission). It is filed as physicochemical. The note with it: pH 2-11. Here is the method:
10 mM stock solutions of 7h, 7j, and 7k in DMSO were individually diluted into ACN/PBS buffer (50:50 v/v) having different pH ranging from pH 2-11 with 25 μM (500 μL) of final concentration. For pH screening of 7h and 7j, PBS buffer solutions were prepared, then adjusted the pH 2, 4, and 7 by adding 6 M hydrochloric acid, pH 9 and 11 by adding 5 M sodium hydroxide. For pH screening of 7k, pH 4.4 and 7.4 were prepared by citric acid/phosphate buffer. Then, the absorption and fluorescence spectra were recorded by using Thermo Scientific Genesys 150 UV-Vis spectrometer, followed by PTI QuantaMaster™ 40 fluorescence spectrometer by excitation with maximum absorption wavelength.
pH measurements. 10 mM stock solutions of 5h and 5j in DMSO were individually diluted into ACN/PBS buffer (50:50 v/v) having different pH ranging from pH 2-11 with 25 µM (500 μL) of final concentration. For pH screening of 5h and 5j, PBS buffer solutions were prepared, then adjusted the pH 2, 4, and 7 by adding 6 M hydrochloric acid, pH 9 and 11 by adding 5 M sodium hydroxide. Then, we have recorded the absorption and fluorescence spectra by using Thermo Scientific Genesys 150 UV-Vis spectrometer, followed by PTI QuantaMaster™ 40 fluorescence spectrometer by excitation with maximum absorption wavelength.

Data set [2] deals with bovine serum albumin (BSA) (Bos taurus, UniProt P02769). The data set can be described thus: Fluorescence in the presence of BSA. The class given is binding.
Sequence of bovine serum albumin (BSA) (P02769 25-607): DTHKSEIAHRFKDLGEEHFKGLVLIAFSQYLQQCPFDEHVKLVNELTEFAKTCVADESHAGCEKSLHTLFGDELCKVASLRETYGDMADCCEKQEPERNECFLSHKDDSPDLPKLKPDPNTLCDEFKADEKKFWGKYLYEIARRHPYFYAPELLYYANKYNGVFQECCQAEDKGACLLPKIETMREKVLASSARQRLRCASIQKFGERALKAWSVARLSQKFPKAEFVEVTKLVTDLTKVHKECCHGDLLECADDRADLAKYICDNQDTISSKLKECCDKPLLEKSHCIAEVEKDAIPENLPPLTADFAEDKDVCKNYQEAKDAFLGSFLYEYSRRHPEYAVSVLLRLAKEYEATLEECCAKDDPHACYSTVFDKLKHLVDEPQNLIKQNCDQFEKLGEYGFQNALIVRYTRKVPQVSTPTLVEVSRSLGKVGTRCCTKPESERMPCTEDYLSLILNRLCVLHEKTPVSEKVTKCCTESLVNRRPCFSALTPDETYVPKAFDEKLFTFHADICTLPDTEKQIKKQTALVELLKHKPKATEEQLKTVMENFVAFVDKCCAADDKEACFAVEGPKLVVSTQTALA
For data set [3], the target named is T1, tau fibrils (Homo sapiens, UniProt P10636).
T1 construct: made in house; host or cells: E. coli BL21
T1 sequence (P10636 1-412 isoform P10636-7): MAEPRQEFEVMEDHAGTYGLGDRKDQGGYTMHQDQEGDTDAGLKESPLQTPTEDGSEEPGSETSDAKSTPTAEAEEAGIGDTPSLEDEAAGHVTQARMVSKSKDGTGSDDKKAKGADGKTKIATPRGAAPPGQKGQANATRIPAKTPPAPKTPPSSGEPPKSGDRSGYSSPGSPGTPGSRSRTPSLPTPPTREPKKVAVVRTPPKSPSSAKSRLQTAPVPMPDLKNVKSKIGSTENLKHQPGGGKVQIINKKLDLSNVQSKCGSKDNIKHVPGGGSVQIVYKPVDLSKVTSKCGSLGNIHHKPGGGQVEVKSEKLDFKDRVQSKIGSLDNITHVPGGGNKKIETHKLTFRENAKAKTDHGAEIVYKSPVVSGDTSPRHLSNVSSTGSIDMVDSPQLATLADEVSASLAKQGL
The data set can be described thus: Fluorescence and excitation spectra with tau fibrils. It is filed as binding. The procedure: Fluorescence measurements were performed using a PTI QuantaMaster™ 40 fluorescence spectrometer. Fluorescence spectra of 5 μM probes (concentrated stock solution prepared as 10 mM in DMSO) (7j, 7k, 7l, 7m, and ThT) in PBS buffer were measured in the absence and presence of 25 μM tau fibrils (stock solution 32 μM tau fibrils in PBS buffer).
Excitation spectral measurements were performed using a PTI QuantaMaster™ 40 fluorescence spectrometer. Excitation spectra of 5 μM probes (concentrated stock solution prepared as 10 mM in DMSO) (7j, 7k, 7l, 7m, and ThT) in PBS buffer were measured in the absence and presence of 25 μM tau fibrils (stock solution 32 μM tau fibrils in PBS buffer).
Fluorescence measurements were performed using a PTI QuantaMaster 40 fluorescence spectrometer. Fluorescence spectra of 5 μM probes (concentrated stock solution prepared as 10 mM in DMSO) (5j, 5k, and ThT) in PBS buffer were measured in the absence and presence of 25 μM tau fibrils (stock solution 32 μM tau fibrils in PBS buffer).
Excitation spectral measurements were performed using a PTI QuantaMaster™ 40 fluorescence spectrometer. Excitation spectra of 5 μM probes (concentrated stock solution prepared as 10 mM in DMSO) (5j, 5k, and ThT) in PBS buffer were measured in the absence and presence of 25 μM tau fibrils (stock solution 32 μM tau fibrils in PBS buffer). […]

The target in data set [4] is T2, αS fibrils (Homo sapiens, UniProt P37840).
T2 construct: intein-His6 (C, cleaved yes); made in house; host or cells: Escherichia coli BL21
Description: Competition binding with ThT on αS fibrils.

For `Cc1c(C)n2c(/C=C/c3ccc(N)cc3)c(C)c(=O)n2c1=O` [Compound 7j, (E)-3-(4-aminostyryl)-2,5,6-trimethyl-1H,7H-pyrazolo[1,2-a]pyrazole-1,7-dione], the “pH effects on absorption and emission” value in data set [1] is “blue-shifted absorption and emission at pH 2”.
With `Cc1c(C)n2c(/C=C/c3ccc(N(C)C)cc3)c(C)c(=O)n2c1=O` [Compound 7l, (E)-3-(4-(dimethylamino)styryl)-2,5,6-trimethyl-1H,7H-pyrazolo[1,2-a]pyrazole-1,7-dione], the “fluorescence turn on with BSA” value in data set [2] is given as “turn-on was possible”. The “λmax (λem) with BSA” value in data set [2] (10 μM probe, BSA 50 μM, excitation 418 nm) is 555 nm. Also, the “emission maximum bound to tau” value in data set [3] came to 596 nm.
Turning to `Cc1c(C)n2c(/C=C/c3ccc(N4CCOCC4)cc3)c(C)c(=O)n2c1=O` [Compound 7k, (E)-2,3,6-trimethyl-5-(4-morpholinostyryl)-1H,7H-pyrazolo[1,2-a]pyrazole-1,7-dione], the “competition with ThT on αS PFFs” value in data set [4] is given as “higher affinity compared than ThT”.
